In patent publication US20250049815A1, “25-HYDROXYCHOLESTEROL (25HC), CRYAB AGGREGATION INHIBITOR TO AMELIORIATE VASCULAR STIFFNESS” (Buck Institute for Research on Aging, priority 2021, published 2025):
“Also recorded” adds a separate entry of the source.

Key:
senescent cells = experiment: Evaluation of senolytic effects in cell culture; assay type: cell-based
Source text: Genetic knockdown of this gene kills senescent cells.
There are some commercially available analogs of 25HC such as oxysterols (Griffiths et al. (2019) Biochem Soc Trans., 47: 517-526).

[1] = tested on: senescent human fetal lung fibroblast (IMR-90); experiment: Cell viability assay (Cell Counting Kit-8) on NS and SEN IMR-90 cells; assay type: cell-based; conditions: treatment started immediately after removing DMSO/250 nM Doxo, 72 hrs
Method: Panel A) Timeline for DMSO/250 nM Doxo treatment and early-time point timeline for 24(S)-HC and 27HC treatment on NS and SEN cells. 24(S)HC and 27HC treatment were started immediately after removing DMSO/Doxo. Panel B) and C) Cell viability assay were performed on NS and SEN cells treated with different concentrations of 24(S)HC and 27HC, respectively. 24(S)HC and 27HC treatment were done for 72 hrs. The cell viability was analyzed by Cell Counting Kit-8 according to the manufactures' protocol using Spectra Max 190 (Molecular Devices). The value was normalized to that of DMSO. (Mean +/−SE, n=3, *p<0.05, **p<0.01 and ***p<0.001 by student's t-test).

senescent mDFs = experiment: Cell viability assay on NS and SEN mDFs treated with 25HC; assay type: cell-based, mouse; conditions: 72 hrs
Method: (§1) Panel A) Timeline for DMSO/Doxo treatment and early-time point timeline for 25HC treatment on NS and SEN cells. 25HC treatment was started immediately after removing DMSO/Doxo. Panel B) Cell viability assay was performed on NS and SEN cells treated with different concentrations of 25HC. 25HC treatment was done for 72 hrs. (Mean +/−SD, n=3, *p<0.05, **p<0.01 vs 0 uM by student's t-test).
as §1, with “late-time” for “early-time”, “7 days” for “immediately”, “n=6, **p<0.01, ***p<0.001, ****p<0.0001,” for “n=3, *p<0.05, **p<0.01”

senescent FAPs = experiment: Cell viability assay on NS and SEN FAPs treated with 25HC; assay type: cell-based, mouse; conditions: 25HC started immediately after removing DMSO/Doxo (early time point), total 5 days
Method: as §1, with “total 5 days. The value was normalized to that of 0 uM. The average value of 0 M is expressed as 100%” for “72 hrs.”, “+/−SE,” for “+/−SD,”, “n=3,” for “n=3, *p<0.05,”, “and ***p<0.001” for “vs 0 uM”, “t-test vs NS).” for “t-test).”

[2] = tested on: aged female C57BL/6J p16-3MR mice; experiment: Pulsed wave velocity (PWV) of the aorta by doppler imaging in aged mice; assay type: in vivo, mouse; conditions: 27 months at baseline, 25HC 50 mpk IP or GCV, 1 and 2 months post treatment, vs untreated controls
Method: At baseline, animals were evaluated for blood flow in the aorta using doppler imaging. This determines a measure of vascular stiffness with vessels being more stiff having faster flow.

CRYAB = conditions: Makley et al. (2015) Science, 350: 674-7; cited from earlier work
[3] = tested on: mouse primary fibro adipogenic progenitors (FAPs); experiment: qPCR of senescence marker and CRYAB mRNA in Doxo treated FAPs; assay type: cell-based; conditions: normalized to β-actin, vs DMSO
Method: As shown, FAPs undergo senescence upon 250 nM of Doxo treatment for 24 hours (Day 0). The mRNA was extracted from DMSO treated NS or Doxo treated SEN FAPs at indicated time points and quantified by qPCR. The amount of mRNA was normalized to the level of β-actin. The graphs show the relative levels of p16INK4a mRNA for DMSO and Doxo treated samples. The average value of DMSO is expressed as 1 (Mean +/−SE, n=3, *p<0.05 by Dunnett's multiple comparisons test vs DMSO).
The cells were treated with 250 nM doxorubicin and incubated for 24 hrs (Day 0). The mRNA was extracted from DMSO treated NS or Doxo treated SEN FAPs at the indicated time points and quantified by qPCR. The amount of mRNA was normalized to the level of β-actin mRNA. The average value of DMSO is expressed as 1 (Mean +/−SE, n=3, **p<0.01 and ***p<0.001 by Dunnett's multiple comparisons test vs DMSO).

[4] = tested on: mouse dermal fibroblasts (mDFs); experiment: qPCR of senescence marker and CRYAB mRNA in Doxo treated mDFs; assay type: cell-based; conditions: 250 nM Doxo for 24 hours; day 1, 5, 14; normalized to β-actin, vs DMSO
Method: (§2) As shown, mDFs undergo senescence upon 250 nM of Doxo treatment for 24 hours (Day 0). Real-time quantitative PCR (qPCR) was performed on RNA samples isolated from DMSO treated NS (Non-Senescent) mDF cells or Doxo treated SEN (Senescent) mDF cells at day 1, 5, and 14 after Doxo treatment. The amount of mRNA was normalized to the level of β-actin (see, e.g., Demaria et al. (2017) Cancer Discovery, 2: 165-176; and references cited therein). Relative levels of p16INK4a mRNA for DMSO and Doxo treated mDFs was measured. The average value of DMSO is expressed as 1. (Mean +/−SE, n=4, **p<0.01, ****p<0.0001 by Dunnett's multiple comparisons test vs DMSO).
as §2, with “Real-time” for “As shown, mDFs undergo senescence upon 250 nM of Doxo treatment for 24 hours (Day 0). Real-time”, “NS” for “NS (Non-Senescent)”, “SEN” for “SEN (Senescent)”, “CRYAB” for “p16INK4a”, “*p<0.05, ***p<0.001” for “**p<0.01, ****p<0.0001”

| SMILES | senolytic effect (senescent cells) | other results |
| --- | --- | --- |
| C[C@@H](CCCC(C)(O)c1ccccc1)C1CCC2C3CC=C4C[C@H](O)CC[C@@]4(C)C3CC[C@]21C (relative stereo) [rel-(3R,10S,13S)-17-[(2S)-6-hydroxy-6-phenylheptan-2-yl]-10,13-dimethyl-2,3,4,7,8,9,10,11,12,13,14,15,16,17-tetradecahydro-1H-cyclopenta[a]phenanthren-3-ol] | novel senolytics |  |
| C[C@H](CCCC(C)(C)O)[C@H]1CC[C@H]2[C@@H]3[C@H](O)C=C4C[C@@H](O)CC[C@]4(C)[C@H]3CC[C@]12C [7α,25-Dihydroxycholesterol] | novel senolytics |  |
| CC(C)CCC[C@@H](C)[C@H]1CC[C@H]2[C@@H]3[C@H](O)C=C4C[C@@H](O)CC[C@]4(C)[C@H]3CC[C@]12C [7αHC, 7α-Hydroxycholesterol] | novel senolytics |  |
| CC(C)CCC[C@@H](C)[C@H]1CC[C@H]2[C@@H]3[C@@H](O)C=C4C[C@@H](O)CC[C@]4(C)[C@H]3CC[C@]12C [7βHC, 7β-Hydroxycholesterol] | novel senolytics |  |
| CC(C)CC[C@@H](O)[C@@H](C)[C@H]1CC[C@H]2[C@@H]3CC=C4C[C@@H](O)CC[C@]4(C)[C@H]3CC[C@]12C [22(R)HC, 22(R)-Hydroxycholesterol] | novel senolytics |  |
| CC(C)[C@@H](O)CC[C@@H](C)[C@H]1CC[C@H]2[C@@H]3CC=C4C[C@@H](O)CC[C@]4(C)[C@H]3CC[C@]12C [24(S)HC, 24(S)-Hydroxycholesterol] | novel senolytics | cell viability of senescent vs non-senescent IMR-90 cells [1]: specifically kill senescent human fetal lung fibroblast; also recorded: specifically kill senescent IMR-90 cells |
| C[C@H](CCCC(C)(C)O)[C@H]1CC[C@H]2[C@@H]3CC=C4C[C@@H](O)CC[C@]4(C)[C@H]3CC[C@]12C [25HC, 25-hydroxycholesterol] | novel senolytic agent | cell viability of senescent vs non-senescent mDFs, late time point (senescent mDFs; 25HC started 7 days after removing DMSO/Doxo): specifically kills senescent mDFs; cell viability of senescent vs non-senescent mDFs, early time point (senescent mDFs; 25HC started immediately after removing DMSO/Doxo): specifically kills senescent mDFs; cell viability of senescent vs non-senescent FAPs (senescent FAPs): specifically kills senescent FAPs; pulsed wave velocity (PWV) of the aorta [2]: reduces PWV; inhibition of CRYAB (CRYAB): effective inhibitor of CRYAB |
| CC(=O)CCC[C@@H](C)[C@H]1CC[C@H]2[C@@H]3CC=C4C[C@@H](O)CC[C@]4(C)[C@H]3CC[C@]12C [27-Nor-25-ketocholesterol] | novel senolytics |  |
| C[C@@H](CO)CCC[C@@H](C)[C@H]1CC[C@H]2[C@@H]3CC=C4C[C@@H](O)CC[C@]4(C)[C@H]3CC[C@]12C [27HC, 27-Hydroxycholesterol] | novel senolytics | cell viability of senescent vs non-senescent IMR-90 cells [1]: specifically kill senescent human fetal lung fibroblast; also recorded: specifically kill senescent IMR-90 cells |
| CC(CCCN(C)C)C1CCC2C3CC=C4C[C@@H](O)CC[C@]4(C)C3CC[C@]12C (stereo partly drawn) [(3S,10R,13R)-17-(5-(dimethylamino)pentan-2-yl)-10,13-dimethyl-2,3,4,7,8,9,10,11,12,13,14,15,16,17-tetradecahydro-1H-cyclopenta[a]phenanthren-3-ol] | novel senolytics |  |
| C[C@H](CCC(=O)O)[C@H]1CCC2[C@@H]3CC=C4C[C@H](O)CC[C@]4(C)C3CC[C@@]21C (stereo partly drawn) [(3alpha,9xi,14xi)-3-hydroxychol-5-en-24-oic acid] | novel senolytics |  |
| C=C1CC[C@@H](O)CC1=C/C=C1\CCC[C@]2(C)[C@@H]([C@H](C)CCCC(C)(C)O)CC[C@@H]12 [Calcifediol 25-Hydroxyvitamin D3, reference compound] | novel senolytics |  |
| COc1cccc2c1C(=O)c1c(O)c3c(c(O)c1C2=O)C[C@@](O)(C(=O)CO)C[C@@H]3O[C@H]1C[C@H](N)[C@H](O)[C@H](C)O1 [Doxo, doxorubicin] |  | senescence induction (relative level of p16INK4a mRNA) ([3]; 250 nM Doxo for 24 hours): induced senescence; expression of CRYAB mRNA ([3]; 250 nM doxorubicin for 24 hrs): significantly increased; relative level of CRYAB mRNA [4]: upregulated CRYAB; relative level of p16INK4a mRNA [4]: induces senescence marker, p16INK4a |
| Nc1nc(O)c2ncn(COC(CO)CO)c2n1 [GCV, ganciclovir, reference compound] |  | pulsed wave velocity (PWV) of the aorta [2]: reduces PWV |
